Data on 18 substances can be found in patent publication US8535672B2, “Broad-spectrum in-vivo effective superantigen toxin antagonists based on the interaction between CD28 and the superantigen and uses thereof” (Yissum Research Development of the Hebrew University of …, priority 2003, dated 2013).

“Also recorded” adds a separate entry of the source. Non-standard residues stand in square brackets, D forms with d. No end group written: not given here.

Series [1] has as its target T1, SEB (Staphylococcus aureus, UniProt P01552). Further details: species or system BALB/c mice. Particulars: mouse.
Series [2] has as its system IL2 and IFN-γ mRNA induced by SEB in human PBMC. The series is classed as cell-based.
In series [3] the test system is IL10 and IL4 induced by SEB in human PBMC. Format: cell-based.
Series [4] relates to IL2 and IFN-γ mRNA in human PBMC. The series is classed as cell-based.
The conditions of series [5]: mouse, in vivo.
In series [6] the test system is IL2 and IFN-γ mRNA induced by TSST-1 in human PBMC. The series is classed as cell-based.
In series [7] the test system is IL2 and IFN-γ mRNA induced by αCD28, αCD3, sB7-2 in human PBMC. The series is classed as cell-based.
Series [8] addresses T1, SEB.
For series [9], the target named is T1, SEB. This is another data set of the same source.
A further series relates to p14A. The series is classed as binding.
For the next series, the target named is T2, sCD28/sB7-2 (Homo sapiens, UniProt P10747).
T2 construct: comprise the extracellular 37-162, 19-152, 21-141, 24-167 and 20-239 amino acid, respectively, of the mature human ligands domain; purchased R&D Systems 342-CD (sCD28); host or cells: mouse myeloma NS0 cells
The series is classed as binding.

Series [10] addresses T3, sCD28 (Homo sapiens, UniProt P10747).
T3 construct: comprise the extracellular 37-162, 19-152, 21-141, 24-167 and 20-239 amino acid, respectively, of the mature human ligands domain; purchased R&D Systems 342-CD; host or cells: mouse myeloma NS0 cells
Format: binding.

The target in a further series is T4, soluble CD28 (sCD28) (Homo sapiens, UniProt P10747).
T4 construct: comprise the extracellular 37-162, 19-152, 21-141, 24-167 and 20-239 amino acid, respectively, of the mature human ligands domain; purchased R&D Systems 342-CD; host or cells: mouse myeloma NS0 cells
Format: binding.

Series [11] has as its target T3, sCD28. Description: ELISA: binding of anti-CD28 to immobilized sCD28 in presence of antagonist peptide. Particulars: 1,000-fold diluted anti-CD28, p14A from 0.1 μg per ml. On the procedure: An amount of 250 ng sCD28 was immobilized on an ELISA microtiter plate and binding of anti-CD28 at the two indicated dilutions (corresponding to 250 and 125 ng/ml, respectively) was measured by use of a secondary antibody coupled to alkaline phosphatase, recording absorbency at 450 nm. p14A was either absent (Control) or present at the indicated concentrations. Abbreviations: bin. (binding), Un. (units), cont. (control), ml (milliliter), μg (microgram), α (anti).
Yet another assay was devised to show a direct interaction between antagonist peptide and sCD28. The inventors developed an enzyme-linked immune sorbent assay (ELISA) in which sCD28 is immobilized in the wells of a microtiter ELISA plate and binding of anti-CD28 is measured by use of a secondary antibody coupled to alkaline phosphatase. It is seen in FIG. 16 that binding of 1,000-fold diluted anti-CD28 to the plate was inhibited by p14A even at a concentration of only 0.1 μg per ml. […] Thus, antagonist peptide p14A is a powerful inhibitor of the interaction between anti-CD28 and sCD28.

Another series has as its system IL10 in human PBMC. Format: cell-based.

In the case of YESQLCCQL (Synthetic peptide p1TC), the “protection of mice from lethal SEB challenge” value (“protection of mice” for short) with SEB [1] (in vivo) is on record as “protected mice from lethal challenge”. Also, in [2], the “antagonism of SEB-mediated induction of IL2 and IFN-γ mRNA” value (“antagonism” for short) was “inhibited”.
Consider PAVVLASS (Synthetic peptide p2TB), for which the “effect on SEB-mediated induction of IL10 / IL4 (Th2 response)” value (from here on “effect … of IL10 / IL4 (Th2 response)”) in series [3] is reported as “left induction of IL10 intact”. For the same substance, the “molar excess (ratio) over SEB at which protective in vivo” value (from here on “molar excess (ratio) over SEB”) with SEB [1] was 2 fold. For the same substance, the “protection of mice” value in the series with SEB [1] (in vivo) is given as “protected mice from lethal challenge”. The “antagonism” value in [2] is reported as “inhibited”.
Take WHAHPHKKPVVA [pd7]: the “effect … of IL10 / IL4 (Th2 response)” value in [3] was “failed to inhibit induction of IL10”. The “mice surviving SEB challenge / group” value with SEB [1] (in vivo) is reported as 4/10. In addition, the “induction of Th1 cytokine mRNA by the substance alone (agonist activity)” value (from here on “induction of Th1 cytokine mRNA”) in series [4] is “lacked superantigen agonist activity”. Moreover, the “toxicity of peptide alone” value in series [5] was “lacked detectable toxicity”. Besides, the “antagonism” value in series [2] is listed as “inhibited”.
For SHFTHNRHGHST (Synthetic Peptide pe12), the “effect … of IL10 / IL4 (Th2 response)” value in series [3] is reported as “failed to inhibit induction of IL10”. Also, the “molar excess (ratio) over SEB” value with SEB [1] was “about equimolar ratio”. The “mice surviving SEB challenge / group” value with SEB [1] (in vivo) is reported as 8/10. Moreover, the “induction of Th1 cytokine mRNA” value in series [4] is listed as “lacked superantigen agonist activity”. Besides, the “toxicity of peptide alone” value in series [5] is on record as “lacked detectable toxicity”. In addition, in [2], the “antagonism” value is “strongly inhibited”.
As for HVKGKHLCP (Synthetic peptide p1TA), the “inhibition of induction of IL2 and IFN-γ mRNA by TSST-1” value in series [6] is reported as “inhibited”. In the series with SEB [1], the “molar excess (ratio) over SEB” value is 3.6 fold. For the same substance, in the series with SEB [1] (in vivo), the “mice surviving SEB challenge / group” value is 7/10. In addition, in [5], the “concentration without detectable toxicity, relative to that needed for protection” value is reported as 25 fold and the “toxicity of peptide alone” value is reported as “lacked detectable toxicity”. The “antagonism” value in [2] is given as “antagonized”.
FHKHKNPGSPII [pc3]: the “effect … of IL10 / IL4 (Th2 response)” value in [3] is given as “failed to inhibit induction of IL10”. Also, on SEB [1], the “molar excess (ratio) over SEB” value is reported as “about equimolar ratio”. In addition, the “mice surviving SEB challenge / group” value at SEB [1] (in vivo) is recorded as 7/10. In addition, the “induction of Th1 cytokine mRNA” value in [4] is “lacked superantigen agonist activity”. In series [5], the “toxicity of peptide alone” value was “lacked detectable toxicity”. Moreover, in [2], the “antagonism” value was “inhibited”.
Take “sCD28: recombinant soluble CD28: extracellular domain of human CD28 fused to His6-tagged Fc of human IgG (R&D Systems 342-CD)”: the “effect on induction of IL2/IFN-γ mRNA by αCD28 alone” value in series [7] is “inhibited”. In [4], the “induction of Th1 cytokine mRNA” value is reported as “did not induce IFN-γ mRNA”. Also, the “competition of anti-SEB Ab binding to SEB (ELISA)” value with SEB [8] is “about 75%”. In the series with SEB [9], the “inhibition of binding of anti-SEB Ab to SEB” value came to 84% and the “reduction of anti-SEB binding to SEB” value is “about 5 fold”. In the series with p14A, the “inhibition of anti-p14A Ab binding to p14A (ELISA)” value is on record as “over 90%”. Further, in series [2], the “antagonism” value is “dose-dependent manner”; the “inhibition of SEB induction of IFN-γ mRNA” value is given as “about twenty fold”; the “inhibition of SEB induction of IL-2 mRNA” value came out at 3.5 fold.
GEINGSAN (Synthetic peptide p2TC): in the series with SEB [1] (in vivo), the “protection of mice” value is listed as “protected mice from lethal challenge”. Besides, the “antagonism” value in series [2] was “inhibited”.
For the substance AAAAAAAHVKGKHLCP [pTA], the “effect … of IL10 / IL4 (Th2 response)” value in [3] was “left the induction of IL10 and IL4 intact”. The “effect on induction of IL2/IFN-γ mRNA by αCD28 alone” value in [7] is listed as “inhibited”. For the same substance, in [4], the “induction of Th1 cytokine mRNA” value is listed as “Neither pTA nor AAAAAAAAAAMYPPPY (SEQ ID NO: 7) alone were active as inducer”. Further, the “antagonism” value in series [2] is on record as “blocked”.
In the case of SPMLVAYD [p2TA], the “inhibition of induction of IL2 and IFN-γ mRNA by TSST-1” value in series [6] is “inhibited”. In addition, the “molar excess (ratio) over SEB” value with SEB [1] worked out at 0.8 fold. Besides, in the series with SEB [1] (in vivo), the “mice surviving SEB challenge / group” value is reported as 8/10. In addition, in series [5], the “concentration without detectable toxicity, relative to that needed for protection” value came out at 125 fold and the “toxicity of peptide alone” value is “lacked detectable toxicity”. For the same substance, in series [2], the “antagonism” value is “antagonized”.
With APMYHKHRLEKH (Synthetic peptide pe6), the “antagonism” value in [2] is reported as “inhibited”.
On to “pSEB(41-61): a peptide that lacks antagonist activity (IDQFLYFDLIYSIKDTKLGNY; UniProt P01552 68-88, looked up, fragment) [reference compound]”, for which the “effect on plasmon resonance signal for binding of sCD28 to sB7-2” value in the series with sCD28/sB7-2 is “only slightly”.
For IHKPHHHRTPLW (Synthetic peptide pf8), the “antagonism” value in series [2] is recorded as “inhibited”.
On to “CHGHLVPKK (Synthetic scrambled control peptide p1TAsc) [scrambled form of p1TA, reference compound]”, for which the “protection of mice” value in the series with SEB [1] (in vivo) is “failed to provide protection”. Besides, in series [2], the “antagonism” value is “lacked antagonist activity”.
Turning to “daV Q Y N K K K A T V Q E L Dda ([dA]VQYNKKKATVQELD[dA]) [p14A]”, in series [3], the “effect … of IL10 / IL4 (Th2 response)” value is “left induction of the Th2-type cytokines IL-10 and IL-4 intact”. The “effect on plasmon resonance signal for binding of anti-CD28 to sCD28” value with sCD28 [10] is reported as “reduced”. Further, in the series with soluble CD28 (sCD28), the “binding to CD28 (SPR)” value is reported as “bind directly to CD28”. Further, the “effect on plasmon resonance signal for binding of sCD28 to sB7-2” value with sCD28/sB7-2 was “enhanced significantly”. The “effect on binding of anti-CD28 to sCD28 (ELISA)” value in the series with sCD28 [11] was “inhibited”. Moreover, the “molar excess (ratio) over SEB” value in the series with SEB [1] was 12 fold. Also, the “protection from lethal SEB challenge” value with SEB [1] (in vivo) is reported as 70%. Also, in series [7], the “effect on induction of IFN-γ mRNA by anti-CD3 alone” value is “did not inhibit”, the “effect on induction of IFN-γ mRNA by anti-CD3 with sB7-2” value is on record as “abrogated”, the “effect on induction of IFN-γ mRNA by sB7-2 alone” value is “shifted the induction by sB7-2 alone to earlier times; also recorded: stimulated induction significantly” and the “effect on induction of IL2/IFN-γ mRNA by αCD28 alone” value is given as “blocked”. Also, in series [7], the “effect on induction of IL2/IFN-γ mRNA by αCD28 and αCD3 combined” value is recorded as “eliminated virtually in full”. Moreover, in the series on IL10 in human PBMC, the “effect on induction of IL10 by αCD28/αCD3” value was “resistant” and the “effect on induction of IL-10 by sB7-2/anti-CD3” value is recorded as “largely resistant”. Besides, the “antagonism” value in [2] is “blocked”.
Consider “C-EKAKYTQLVKDN-C (CEKAKYTQLVKDNC; terminal cysteines; Sequence of artificial peptide p12Csc) [randomly scrambled p12C, reference compound]”, for which the “binding to CD28 (SPR)” value with soluble CD28 (sCD28) is “failed to bind CD28”.
As for “AAAAAAAAAAMYPPPY [control peptide containing another motif in the sCD28 molecule, reference compound]”, the “induction of Th1 cytokine mRNA” value in [4] was “Neither pTA nor AAAAAAAAAAMYPPPY (SEQ ID NO: 7) alone were active as inducer”. Also, the “antagonism” value in [2] is reported as “did not show antagonist activity”.
Regarding YVIDPEPCP (Synthetic peptide p1TB), in [3], the “effect … of IL10 / IL4 (Th2 response)” value is reported as “left induction of IL10 intact”. The “molar excess (ratio) over SEB” value with SEB [1] is recorded as 3.6 fold. In addition, in the series with SEB [1] (in vivo), the “protection of mice” value was “protected mice from lethal challenge”. Moreover, the “antagonism” value in [2] is listed as “inhibited”.
